Assay results as given in patent US9468670B2, “Melatonin-based treatment and diagnosis of bile duct disease” (Texas A&M University System, priority 2011, dated 2016).

What was measured:
[1] = tested on: large mouse cholangiocyte lines; test: cAMP levels (RIA) in large mouse cholangiocyte lines; type: cell-based; conditions: preincubation with antagonist (10 mM), melatonin 10^−11 M
Excerpt: (§1) The expression of MT1 and MT2 receptors in immortalized large cholangiocytes was first evaluated by immunofluorescence (Francis et al., 2008). Images were visualized using an Olympus IX-71 confocal microscope. For all immunoreactions, negative controls (with normal serum from the same species substituted for the primary antibody) were included. It was next evaluated by commercially available radioimmunoassay (RIA) kits ([…] et al., 1998; Kato et al., 1992; […] et al., 1999; […] et al., 2004) for cAMP levels ([…] et al., 1998; Kato et al., 1992; […] Shiu et al., 2010). […] […] et al., 1992; Ramirez-Rodriguez et al., 2009; […], 1999). […] Shiu et al., 2010) before evaluating by immunoblots (Francis et al., 2008) the expression of PCNA and the phosphorylation of PKA and EKR1/2.

[2] = tested on: large cholangiocyte lines; test: PCNA expression and PKA, ERK1/2 phosphorylation (immunoblots) in immortalized large cholangiocytes; type: cell-based, mouse; conditions: preincubation with antagonist (10 mM), melatonin 10^−11 M, 48 hours
Excerpt: as §1

MT2 vs. the MT1 subtype = conditions: Shiu et al., 2010; cited from earlier work
AANAT = molecular target: T1, AANAT (Rattus norvegicus, UniProt Q64666); test: Melatonin levels in serum and cholangiocyte supernatant (ELISA) of Morpholino-treated rats; type: in vivo; conditions: normal rats
T1 construct: the expression of AANAT in liver sections and cholangiocytes from the selected groups of animals; from tissue; host or cells: Male Fischer 344 rats: liver sections, total liver, isolated cholangiocytes, pineal gland, small intestine, serum
Description: In separate experiments, normal rats treated with Vivo-Morpholino sequences of AANAT (5'-[…] NO:1), to reduce the biliary expression of AANAT) or Morpholino mismatched (5'-[…] NO:2)) (Gene Tools LCC) (1 mg/Kg BW/day) for 1 week via an implanted portal vein catheter. Serum, liver tissue, cholangiocytes, kidney, spleen, small intestine, stomach and heart were collected. Since our goal was to knock-down AANAT expression in the liver without inhibiting AANAT expression in other organs, we used a lower dose (1 mg/Kg/day) of Vivo-Morpholino than that described in the original study (3.0 mg/kg/day (Arora et al., 2002). This approach minimizes the amount of Vivo-Morpholino that circulates outside of the liver after slow infusion into the portal vein. See below for the surgical procedure for the implantation of the portal vein catheter by which AANAT Vivo-Morpholino or Morpholino mismatched was administered. Melatonin levels in serum and medium of primary cultures of isolated cholangiocytes were determined by ELISA kits (Genway, San Diego, Calif.). Supernatants were obtained from cholangiocytes (1×10^7 cells/ml) that were incubated for 6 hours at 37° C. (Glaser et al., 2008).

[3] = rat, in vivo, 1 mg/kg/day
Description: (§2) In separate experiments, normal rats treated with Vivo-Morpholino sequences of AANAT (5′-[…] (SEQ ID NO:1), to reduce the biliary expression of AANAT) or Morpholino mismatched (5′-[…] (SEQ ID NO:2)) (Gene Tools LCC) (1 mg/Kg BW/day) for 1 week via an implanted portal vein catheter. Serum, liver tissue, cholangiocytes, kidney, spleen, small intestine, stomach and heart were collected. Since our goal was to knock-down AANAT expression in the liver without inhibiting AANAT expression in other organs, we used a lower dose (1 mg/Kg/day) of Vivo-Morpholino than that described in the original study (3.0 mg/kg/day (Arora et al., 2002). This approach minimizes the amount of Vivo-Morpholino that circulates outside of the liver after slow infusion into the portal vein. See below for the surgical procedure for the implantation of the portal vein catheter by which AANAT Vivo-Morpholino or Morpholino mismatched was administered.
(§3) Biliary proliferation was determined by measurement of the percentage of PCNA-positive cholangiocytes by immunohistochemistry, and intrahepatic bile duct mass (IBDM) by immunohistochemistry for CK-19 (Mancinelli et al., 2010). Biliary apoptosis was evaluated by semiquantitative terminal deoxynucleotidyltransferase biotin-dUTP nick-end labeling (TUNEL) kit (Chemicon International, Inc., Temecula, Calif.) (Mancinelli et al., 2010). IBDM was determined as the area occupied by CK-19 positive-bile duct/total area×100 (Mancinelli et al., 2010). The morphological changes/damage in liver, spleen, kidney, heart, stomach, and small intestine were evaluated from AANAT Vivo-Morpholino- or mismatch-treated rats by H&E staining. The serum levels of the transaminases, glutamate pyruvate transaminases (SGPT) and glutamic oxaloacetic transaminase (SGOT), alkaline phosphatase (ALP) and total bilirubin were evaluated using a Dimension RxL Max Integrated Chemistry system (Dade Behring Inc., Deerfield Ill.), Chemistry Department, Scott & White.

cholangiocytes = test: Biliary proliferation (PCNA, IBDM) and apoptosis (TUNEL) in Morpholino-treated rats; type: in vivo, rat; conditions: normal rats, 1 mg/Kg BW/day for 1 week via portal vein catheter
Description: as §2, §3

[4] = tested on: SR, CFTR, Cl−/HCO3− AE2, VEGF-A/C; test: Expression of PCNA, SR, CFTR, Cl−/HCO3− AE2, VEGF-A/C in liver sections, liver tissue and cholangiocytes of Morpholino-treated rats; type: in vivo, rat; conditions: normal rats, 1 week
Description: as §2
By real-time PCR (Francis et al., 2008), the expression of PCNA, SR, CFTR, Cl^−/HCO3^− AE2, VEGF-A/C was evaluated in total RNA from: (i) cholangiocytes from normal rats, and BDL rats treated with melatonin; and (ii) liver tissue and cholangiocytes from rats treated with mismatch or AANAT Vivo-Morpholino for 1 week. A ΔΔCT analysis was obtained using normal cholangiocytes or normal total liver as control samples (Francis et al., 2008). The primers for rat PCNA, SR, CFTR, Cl^−/HCO3^− AE2, VEGF-A/C (SABiosciences) were designed according to the NCBI GenBank Accession numbers: NM_022381 (PCNA); NM_031115 (SR); NM_017048 (Cl^−/HCO3^− AE2); XM_001059206 (CFTR); NM_031836 (VEGF-A); and NM_053653 (VEGF-C). The percentage of cholangiocytes positive for SR, CFTR, Cl^−/HCO3^− AE2 and VEGF-A/C was evaluated in liver sections: when 0%-5% of bile ducts were positive a negative score was assigned; a +/−score was assigned when 6%-10% of ducts were positive; a +score was assigned when 11%-30% of bile ducts were positive (Glaser et al., 2009).

T1 sequence (Q64666 whole entry): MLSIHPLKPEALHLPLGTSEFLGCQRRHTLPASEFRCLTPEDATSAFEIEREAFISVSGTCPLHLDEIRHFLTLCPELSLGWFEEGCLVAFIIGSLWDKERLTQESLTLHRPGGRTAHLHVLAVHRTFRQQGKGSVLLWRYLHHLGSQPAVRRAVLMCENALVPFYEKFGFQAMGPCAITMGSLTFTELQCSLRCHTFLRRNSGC

CC(=O)NCCc1c(Cc2ccccc2)[nH]c2ccccc12 [luzindole]
Prevention of the melatonin-induced decrease in cAMP levels [1]: prevented | Prevention of the melatonin-induced decreases in PCNA expression and PKA, ERK2 phosphorylation [2]: prevented

CCC(=O)NC1Cc2ccccc2C(c2ccccc2)C1 (stereo not shown) [4-P-PDOT, 4-Phenyl-2-propionamidotetralin]
Selectivity for the MT2 vs. the MT1 subtype (MT2 vs. the MT1 subtype): > 300 fold | Prevention of the melatonin-induced decrease in cAMP levels [1]: not

mismatch Morpholino: Morpholino mismatched 5′-GTTCCCGACCTTTGCAACTCGTCCC (SEQ ID NO:2), control for AANAT Vivo-Morpholino (all phosphorodiamidate morpholino (PMO); further chemistry not fully specified)
Melatonin supernatant (AANAT; cholangiocyte supernatant, 6 hours at 37° C., 1 mg/Kg BW/day for 1 week): 5.8 ± 0.6 pg/mL | Melatonin serum (AANAT; 1 mg/Kg BW/day for 1 week via portal vein catheter): 46.4 ± 10.1 pg/mL | ALP [3]: 230.7 ± 9 Units/L | SGOT [3]: 120.5 ± 10.5 Units/L | SGPT [3]: 67.75 ± 4.6 Units/L | Total bilirubin [3]: <0.1 mg/L | % IBDM (cholangiocytes): 0.30 ± 0.04% | % PCNA-positive cholangiocytes (cholangiocytes): 8.00 ± 0.7% | % apoptotic cholangiocytes (cholangiocytes): <5% | Immunoreactivity of cholangiocytes to Cl−HCO3− AE2 [4]: +/− (a +/−score was assigned when 6%-10% of ducts were positive) | Immunoreactivity of cholangiocytes to SR [4]: +/− (a +/−score was assigned when 6%-10% of ducts were positive) | Immunoreactivity of cholangiocytes to VEGF-A [4]: +/− (a +/−score was assigned when 6%-10% of ducts were positive)
